Reference: patent US8637521B2, “Substituted piperazin-2,5-diones and their use as multifunctional bioactive compounds” (priority 2006, dated 2014)
“And” between values parts separate entries of the source, which are not always exact repeats. Equal entries are not always repeated. Square brackets hold non-standard residues; d marks the D form. Peptide text beside a SMILES is read from it.

Tests used:
[1] = Solubility of peptides in 0.1% NH4OH; type: physicochemical
Anti-OVA antibody titers = test: Adjuvant activity, anti-OVA antibody titers by ELISA (Example 8); type: in vivo, Balb/c mice; conditions: for Stimulation index / Anti-protein antibody titer / Pool: Table 8; for Anti-protein antibody titer: one value per mouse; for Pool: pooled sera titer
Description: Adjuvant activity was tested on 11 groups of Balb/c mice (obtained from Stolbovaya Breeding Station). Each group consisted of 7 animals. Three immunizations were performed as follows:
• Group 1—ovalbumin 25 micrograms per animal (Mouse Nos. 1 to 7) • Group 2—ovalbumin 25 micrograms per animal+CFA (Complete Freund's adjuvant) (Mouse Nos. 8 to 14) • Group 3—ovalbumin 25 micrograms per animal+adjuvant of compound 33a 100 micrograms per animal (Mouse Nos. 15 to 21) • Group 4—ovalbumin 25 micrograms per animal+adjuvant of compound 33a 10 micrograms per animal (Mouse Nos. […]) • Group 5—ovalbumin 25 micrograms per animal+adjuvant of compound 33a 1 microgram per animal (Mouse Nos. […]) • Group 6—ovalbumin 25 micrograms per animal+adjuvant of compound 33b 100 micrograms per animal (No. 36 to 42) • Group 7—ovalbumin 25 micrograms per animal+adjuvant of compound 33b 10 micrograms per animal (Mouse Nos. 43 to 49) • Group 8—ovalbumin 25 micrograms per animal+adjuvant of compound 33b 1 microgram per animal (Mouse Nos. 50 to 56) • Group 9—ovalbumin 25 micrograms per animal+adjuvant of compound 17 100 micrograms per animal (Mouse Nos. 57 to 63) • Group 10—ovalbumin 25 micrograms per animal+adjuvant of compound 1710 micrograms per animal (Mouse Nos. 64 to 70) • Group 11—ovalbumin 25 micrograms per animal+adjuvant of compound 171 microgram per animal (Mouse Nos. 71 to 77) Second Immunization:
The same set 14 days after first immunization by injection of 12.5 micrograms of ovalbumin/mouse to mouse nos. 1 to 77.
The same set 28 days after first immunization by injection of 12.5 micrograms of ovalbumin/mouse to mouse nos. 1 to 77.
On day 35 after first immunization, blood samples from each mouse were collected.
OVA (10 micrograms/ml) solution in 0.05 M sodium carbonate buffer (pH 9.5) was added to plate wells, 0.1 ml per well and incubated at 4° C. for 16 hours. The OVA solution was then removed and the plate was washed 4 times with PBS containing 0.05% Tween-20. Such washing was performed after each incubation stage. Serial twofold dilutions of sera (starting from 1:100 or 1:1000) were added to the wells, 0.1 ml per well and incubated at 37° C. for 1 hour followed by incubation (1 hour, 37° C.) with HRP-conjugated goat anti-mouse IgG antibodies (0.1 ml, 1 mg/ml in PBS) and then with a 0.1 mL substrate solution −0.05% H2O2 and 0.05% o-phenylene diamine in 0.05M sodium citrate buffer with a pH of 4.5. The reaction was stopped by adding 100 μl of 12.5% H2SO4. Absorbance was measured at a wavelength of 492 nm using a Multiscan Plus MKII (Flow Laboratories, Great Britain). Significant anti-protein antibody titer (for individual sera) was assessed as the serum dilution produced an absorbance value of more than 0.1 ODU and the minimum exceeds three times the control level. The antibody titer was presented and −log of dilution (FIGS. 2 and 3). The stimulation index for pooled sera was calculated by dividing the test pooled sera dilution producing OD=1 by the dilution of pooled sera from mice immunized without the adjuvant, producing OD=1. The results of the adjuvant activities of cyclo-L-Ala-L-Glu-(L-Trp-OH) (Compound 17), cyclo-L-Lys(N-acetyl-Glycosamine-N-acetyl-muramil)-L-Glu-(L-Trp-OH) (Compound 33a) and cyclo-D-Lys(N-acetyl-Glycosamine-N-acetyl-muramil)-D-Glu-(L-Trp-OH) (Compound 33b) are shown in Table 7 and the adjuvant activities of cyclo [L-Lys(Palmitoyil)-L-Glu(D-Trp-OH)] (Compound 26a) and cyclo [D-Lys(Palmitoyil)-D-Glu(D-Trp-OH)] (Compound 26b) are shown in Table 8 as well as in FIG. 4 which includes the results of the adjuvant activities of cyclo-L-Lys-L-Glu-(L-Trp-OH) (compound 19). It is noted that the peptides of compounds 26a and 26b are soluble in 0.1% NH4OH at a concentration of 1 mg per 1 to 2 ml.

[2] = system: hemopoietic precursor cells; test: Exogenous spleen colonies from bone marrow irradiated ex vivo with 1 Gy; type: in vivo
Description: In this study, the method of exogenous spleen colonies was applied. A suspension of intact bone marrow cells was irradiated ex vivo in the dose of 1 Gy. Different doses of Neogen or cyclic peptides were injected IP, 1M, subcutaneous or introduced per os to lethally irradiated recipients within an hour after the injection of irradiated bone marrow. Colonies were counted on day 8. All data in each group was the mean of three tests.

BALB/c male mice = test: Antinociceptive activity, tail flick test with heat radiation, intragastral or intraperitoneal; type: in vivo
Description: For estimation of oral activity of novel cyclopeptides of the present invention, the “tail flick” test was used. The results were compared with those obtained using intraperitoneal administration.
Antinociceptive activity of the peptides of the present invention was assessed in experiments on BALB/c male mice weighing 22 to 24 g. The peptides were dissolved in saline and administered intraperitoneally or intragastrally.
The “Tail flick” test (D'Amour, F. E. et al. “A Method for Determining Loss of Pain Sensation”, J. Pharmacol. Exp. Ther., Vol. 72, Pages 74 to 79, 1941) was performed on an analgesimeter type 812, Hugo Sachs Electronick KG. Antinociceptive activity was defined as the absence of tail flick response on stimulation with a focused bundle of heat radiation with 6 sec at baseline response of 2.0-3.0 seconds.
Statistical treatment of the results was carried out by the Student's paired t-test.

[3] = molecular target: μ-receptor (isolated guinea pig ileum, GPI) (Cavia porcellus, UniProt P97266); test: Peripheral opioid activity: inhibition of electrically-induced contractions of isolated guinea pig ileum (GPI); conditions: for Value of pD2 (M ± m): negative logarithm of EC50; for EC50: read-out: Median EC50 in M, concentration reducing contraction amplitude by 50%, 5 replications
μ-receptor (isolated guinea pig ileum, GPI), sequence (P97266 whole entry): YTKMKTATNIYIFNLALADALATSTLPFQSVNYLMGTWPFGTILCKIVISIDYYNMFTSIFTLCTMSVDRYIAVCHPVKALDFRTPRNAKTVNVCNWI
Description: The segment of GPI about 1 cm long was placed into a 10-ml organ bath containing Krebs solution at 34° C. […] Resting tension of the organ was 1 g. The segment of GPI was stimulated by single pulses duration 1 ms with 0.1 Hz at 80 V. The solution with isolated organs was constantly aerated. The contractions were recorded in an isometrical mode by a sensor K 30 (Hugo Sachs Elektronic KG) with paper register Rikadenki-series (Japan).
The substances tested were dissolved in distilled water and added cumulatively to the organ bath at a volume of 5 to 30 mcl. Each subsequent substance was added after the isolated organs were washed 3 or 4 times for 12-15 min. On the basis of the data obtained, dose-effects curves were plotted and the activity of substances was expressed by IC50 or pD2. The pD2 index was equal to a negative decimal logarithm of the substance concentration causing a 50% of the maximal effect.
New dermorphin analogues were tested in the standard model of Guinea pig ileum binding test.
For confirmation of opioid activity, the specific antagonist naloxson was used in concentration of 10^−5M. Each molecule was tested in 5 independent replications and relative activity was calculated as negative logarithm of EC50 (pD2).

mice F1(CBAxC57D16) = test: Analgesic activity, tail flick test, water 48° C., intraperitoneal; type: in vivo; conditions: Table 10; for Initial sensitivity level: before injection
Description: Two hundred and twenty mice F1(CBAxC57D16) first generation hybrids were used for testing of analgesic activity using the “tail flick” test. The water temperature was at 48° C. The maximal effect was for the period of 30 seconds. All peptides were injected intraperitoneally in the doses of 5, 10 or 20 mg/kg. Analgesic effect was estimated in the time interval of 15 to 120 min after peptide injection. Student's t-criterion was used for statistical calculations of the results. Statistical significance were at the level of p≦0.05.

[4] = Table 11, oral 50 mg/kg group, before administration
[5] = Table 12, intraperitoneal 10 mg/kg group, before injection
[6] = Table 12, intraperitoneal 10 mg/kg, 15 min, cut-off 6 sec

## CCCCCCCCCCCCCCCC(=O)NCCCC[C@H]1NC(=O)[C@@H](CCC(=O)N[C@H](Cc2c[nH]c3ccccc23)C(=O)O)NC1=O [Compound 26b, cyclo [D-Lys(Palmitoyil)-D-Glu(D-Trp-OH)]]
[1]; 0.1% NH4OH
  soluble in 0.1% NH4OH at a concentration of: 1 mg per 1 to 2 ml
[1]; titrated with 0.1% AcOH to pH=8.4 to 8.5
  solubility when titrated with 0.1% AcOH: remain soluble
Anti-OVA antibody titers; FIG. 4
  adjuvant activity (FIG. 4), doses at which active: not an active compound
Anti-OVA antibody titers; 1 μg per animal
  Stimulation index: 4.9
  Pool: 5.1
Anti-OVA antibody titers; 10 μg per animal
  Stimulation index: 2.7
  Pool: 4.8
Anti-OVA antibody titers; 100 μg per animal, no adjuvant = 1
  Stimulation index: 2.6
Anti-OVA antibody titers; OVA + adjuvant 1 μg per animal
  Anti-protein antibody titer: 5.4 (2×) and 4.5 and 3.8 and 3.5 and 5.1
Anti-OVA antibody titers; OVA + adjuvant 10 μg per animal
  Anti-protein antibody titer: 4.7 (3×) and 5.1 and 4.8 (2×)
Anti-OVA antibody titers; OVA + adjuvant 100 μg per animal
  Anti-protein antibody titer: 4.5 (2×) and 4.8 (3×) and 4.2
Anti-OVA antibody titers; 100 μg per animal, no adjuvant 3.9
  Pool: 4.8

## COC(=O)[C@H](Cc1c[nH]c2ccccc12)NC(=O)CC[C@@H]1NC(=O)[C@H](C)NC1=O [Compound 16, Cyclo-L-Ala-L-Glu-(L-Trp-OMe)]
[2]; 100 μg/kg per/os
  % stimulation: 74.8%
  Colony count: 8.9 ± 0.5
[2]; 100 μg/kg s/c
  % stimulation: 67.2%
  Colony count: 8.0 ± 0.5

## CNC(=O)[C@H](CO)NC(=O)[C@@H]1CCCN1C(=O)[C@H](Cc1ccc(O)cc1)NC(=O)[C@@H](C)NC(=O)[C@H](Cc1ccccc1)NC(=O)[C@@H](C)NC(=O)[C@@H](N)Cc1ccc(O)cc1 [Compound 50, H-Tyr-D-Ala-Phe-D-Ala-Tyr-Pro-Ser-NH-CH3, reference compound] (H-Y[dA]F[dA]YPS-NHMe)
BALB/c male mice; [4]
  Initial sensitivity level, mean: 2.6 ± 0.1 s
BALB/c male mice; Table 11, oral 50 mg/kg, 15 min, cut-off 6 sec
  Effect duration: 3.3 ± 0.6 s
BALB/c male mice; Table 11, oral 50 mg/kg, 30 min
  Effect duration: 2.3 ± 0.1 s
BALB/c male mice; Table 11, oral 50 mg/kg, 90 min
  Effect duration: 4.3 ± 0.6 s
BALB/c male mice; [5]
  Initial sensitivity level, mean: 2.0 ± 0.1 s
BALB/c male mice; [6]
  Effect duration: 3.6 ± 0.7 s
[3]
  Value of pD2 (M ± m): 7.95 ± 0.07
  EC50: 9.5 nM
Mice F1(CBAxC57D16); 5 mg/kg group
  Initial sensitivity level: 3.0 ± 0.1 s
Mice F1(CBAxC57D16); 5 mg/kg i.p., 15 min after injection
  Effect duration: 9.0 ± 1.7 s
Mice F1(CBAxC57D16); 5 mg/kg i.p., 30 min
  Effect duration: 10.3 ± 2.6 s
Mice F1(CBAxC57D16); 5 mg/kg i.p., 45 min
  Effect duration: 14.3 ± 3.7 s
Mice F1(CBAxC57D16); 5 mg/kg i.p., 60 min
  Effect duration: 10.8 ± 1.9 s
Mice F1(CBAxC57D16); 5 mg/kg i.p., 90 min
  Effect duration: 6.4 ± 1.5 s
Mice F1(CBAxC57D16); 5 mg/kg i.p., 120 min
  Effect duration: 3.5 ± 0.2 s
Mice F1(CBAxC57D16); 10 mg/kg group
  Initial sensitivity level: 2.9 ± 0.2 s
Mice F1(CBAxC57D16); 10 mg/kg i.p., 15 min
  Effect duration: 5.9 ± 0.7 s
Mice F1(CBAxC57D16); 10 mg/kg i.p., 30 min
  Effect duration: 10.7 ± 0.8 s
Mice F1(CBAxC57D16); 10 mg/kg i.p., 45 min
  Effect duration: 12.2 ± 2.6 s
Mice F1(CBAxC57D16); 10 mg/kg i.p., 60 min
  Effect duration: 7.2 ± 1.2 s
Mice F1(CBAxC57D16); 10 mg/kg i.p., 90 min
  Effect duration: 6.9 ± 1.4 s
Mice F1(CBAxC57D16); 10 mg/kg i.p., 120 min
  Effect duration: 3.7 ± 0.4 s

## Cyclo-[L-Lys(H-Tyr-D-Ala-Phe-D-Ala-Tyr-Pro-Ser)-L-Glu(L-Trp-OH)]
BALB/c male mice; [4]
  Initial sensitivity level, mean: 2.2 ± 0.1 s
BALB/c male mice; [5]
  Initial sensitivity level, mean: 2.1 ± 0.1 s
BALB/c male mice; [6]
  Effect duration: 4.1 ± 0.4 s
Mice F1(CBAxC57D16); 10 mg/kg group
  Initial sensitivity level: 3.7 ± 0.2 s
Mice F1(CBAxC57D16); 10 mg/kg i.p., 15 min
  Effect duration: 6.8 ± 0.6 s
Mice F1(CBAxC57D16); 10 mg/kg i.p., 30 min
  Effect duration: 6.3 ± 0.7 s
Mice F1(CBAxC57D16); 10 mg/kg i.p., 45 min
  Effect duration: 8.4 ± 1.4 s
Mice F1(CBAxC57D16); 10 mg/kg i.p., 60 min
  Effect duration: 7.7 ± 1.7 s
Mice F1(CBAxC57D16); 10 mg/kg i.p., 90 min
  Effect duration: 6.7 ± 1.0 s
Mice F1(CBAxC57D16); 10 mg/kg i.p., 120 min
  Effect duration: 4.6 ± 0.3 s
Mice F1(CBAxC57D16); 20 mg/kg group
  Initial sensitivity level: 3.4 ± 0.2 s
Mice F1(CBAxC57D16); 20 mg/kg i.p., 15 min
  Effect duration: 7.8 ± 0.5 s
Mice F1(CBAxC57D16); 20 mg/kg i.p., 30 min
  Effect duration: 8.3 ± 0.8 s
Mice F1(CBAxC57D16); 20 mg/kg i.p., 45 min
  Effect duration: 8.7 ± 1.2 s
Mice F1(CBAxC57D16); 20 mg/kg i.p., 60 min
  Effect duration: 9.5 ± 1.2 s
Mice F1(CBAxC57D16); 20 mg/kg i.p., 90 min
  Effect duration: 9.7 ± 1.3 s
Mice F1(CBAxC57D16); 20 mg/kg i.p., 120 min
  Effect duration: 8.2 ± 1.7 s

## C[C@@H](NC(=O)[C@H](Cc1ccccc1)NC(=O)[C@@H](C)NC(=O)[C@H](Cc1ccc(O)cc1)NC(=O)[C@@H](N)CCCNC(=N)N)C(=O)O [Compound 53, H-Arg-Tyr-D-Ala-Phe-D-AlaOH] (H-RY[dA]F[dA]-OH)
BALB/c male mice; [5]
  Initial sensitivity level, mean: 2.4 ± 0.1 s
BALB/c male mice; [6]
  Effect duration: 2.7 ± 0.1 s
[3]
  Value of pD2 (M ± m): 6.06 ± 0.12
  EC50: 1000 nM
